Results taken from patent US20200255492A1, “LEPTIN PEPTIDES AND THEIR USE FOR TREATING NEUROLOGICAL DISORDERS” (UNIVERSITY OF DUNDEE, priority 2017, published 2020).

Key:
[1] = system: p-Tau in hippocampal neurons; experiment: Immunocytochemistry of phosphorylated tau and p-tau/PSD-95 co-localization; assay type: cell-based, Sprague-Dawley rats; conditions: for % co-localization of p-Tau and PSD-95 in Aβ1-42-treated neurons / p-Tau levels in Aβ1-42-treated neurons: Aβ1-42 1 μM plus leptin 10 nM or leptin(116-130)
Protocol: Hippocampal cultures were prepared as previously (Moult et al, 2010). Neonatal Sprague-Dawley rats (1-3 d old) were […] killed by cervical dislocation in accordance with the UK Animals (Scientific Procedures Act) 1986 legislation. Hippocampi were removed, and after washing in HEPES-buffered saline comprising (mM) 135 NaCl; 5 KCl; 1 CaCl2; 1 MgCl2; 10 HEPES; and 25 D-glucose at […], were treated with papain (1.5 mg ml21; Sigma-Aldrich) for 20 min at 37° C. Dissociated cells were plated onto sterile dishes (35 mm diameter; Greiner Bio-One, Kremsmun-ster, Austria) treated with poly-D-lysine (20 μg ml^−1; 1-2 h). Cultures were maintained in serum replacement medium (SR2; Sigma-Aldrich) in a humidified atmosphere of 5% CO2 and […] at 37° C. for up to 2 wk.
Phosphorylated tau was labelled with primary antibody rabbit anti-tau (Ab-396) polyclonal antibody (1:500, Gen Script) corresponding to phosphorylation site of serine 396 (Y-K-S^P-P-V). To visualise p-tau labelling, neurons were then incubated for 30 min with Alexa fluor555 donkey anti-rabbit IgG secondary antibody (1:250, Thermo Fisher Scientific). For synaptic localisation of p-tau, a secondary primary antibody was then added to compare p-tau localization relative to the synaptic marker, PSD95 (mouse anti-PSD-95, 1:500, Thermo Fisher Scientific) for 30 min. PSD-95 labelling was visualized by incubating with a goat anti-mouse Alexa Fluor […] antibody (1:500; Thermo Fisher Scientific) for 30 min.
A Zeiss LSM510 confocal microscope was used for image acquisition and analysis. Images were obtained using a 10-s scan speed in single tracking mode or multi-tracking mode for dual labelling experiments. The intensity of immunostaining was measured off-line using Lasersharp software (Zeiss Lasersharp), whereby analysis lines of 50 μm length were drawn along randomly selected dendritic regions. All data were obtained from at least three different cultures from different animals. Imaging conditions including illumination intensity and photomultiplier gains were kept constant between treatments for each experiment. In addition, data were normalised relative to the mean fluorescence intensity obtained from control neurons. For synaptic co-localisation experiments, tau and PSD-95 positive immunostaining were compared. The number of tau-positive sites that co-localized with PSD-95 positive sites were counted and expressed as a percentage of total positive sites (peaks of intensity).

hippocampal cultures = experiment: Synaptophysin staining and surface GluA1-synaptophysin colocalization; assay type: cell-based, Sprague Dawley rats; conditions: for colocalization between surface GluA1 and synaptophysin immunostaining: control 43±5.4%; for synaptophysin staining: leptin 50 nM, 30 min
Protocol: Hippocampal cultures were prepared from neonatal Sprague Dawley rats as before (O'Malley et al. 2007). Briefly, neonatal Sprague Dawley rats (1-3 days old) were killed by cervical dislocation in accordance with Schedule 1 of the United Kingdom Government Animals (Scientific Procedures) Act, 1986 and the hippocampi removed. After washing in HEPES buffered saline (HBS) comprising (mM): NaCl 135; KCl 5; CaCl2 1; MgCl2 1; HEPES 10; D-glucose 25 at pH 7.4; cells were treated with protease Type X and Type XIV (0.5 mg/ml; Sigma) for 25 min at room temperature. Dissociated cells were plated onto sterile dishes (Falcon 3001) treated with poly-1-lysine (20 μg/ml; 1-2 h) and maintained in MEM with serum replacement-2 (Sigma) in a humidified atmosphere of 5% CO2 and […] at 37° C. for up to 3 weeks.
To monitor GluA1 surface expression, immunocytochemistry was performed on hippocampal cultures (7-14 DIV) as before (Moult et al. 2010). […] Neurons were then fixed with 4% paraformaldehyde (5 min) before adding an appropriate fluorescently labelled secondary.
As excitatory synaptic strength is governed by the density of AMPA receptors expressed at synapses, the effects on synaptic AMPA receptors was examined by comparing the colocalization between surface GluA1 and synaptophysin immunolabelling in hippocampal cultures (Moult et al. 2010). […] Similarly, in hippocampal neurons treated with leptin (116-130), synaptophysin staining was increased to 122±9% (n=36; P<0.05) and a significant increase (to 64±4.9%; n=36; P<0.01) in GluA1-synaptophysin colocalization was observed (FIG. 2E). Conversely, exposure to leptin (22-56) had no significant effect on either synaptophysin staining (105±9%; n=36; P>0.05) or the degree of colocalization (49±5.4%; n=36; P>0.05; FIG. 2E).

| Substance | % co-localization of p-Tau and PSD-95 in Aβ1-42-treated neurons [1] | p-Tau levels in Aβ1-42-treated neurons [1] | colocalization between surface GluA1 and synaptophysin immunostaining (hippocampal cultures) | synaptophysin staining (hippocampal cultures) | p-Tau staining, Aβ1-42 alone ([1]; 1 μM) | synaptic levels of p-Tau (p-Tau/PSD-95), Aβ1-42 alone ([1]; 1 μM) |
| --- | --- | --- | --- | --- | --- | --- |
| leptin: the metabolic hormone leptin, whole (full length) leptin molecule; human leptin from Sigma in SH-SY5Y work | prevents Aβ1-42-driven tau phosphorylation and its targeting to synapses | prevents Aβ1-42-driven tau phosphorylation | 62±4.4% | 144±9 % of control |  |  |
| leptin (22-56): leptin fragment amino acids 22-56 (Bachem), comparison fragment (VPIQKVQDDTKTLIKTIVTRINDISHTQSVSSKQK; UniProt P41159 22-56, looked up, fragment) [reference compound] |  |  | 49±5.4% | 105±9 % of control |  |  |
| Aβ1-42: amyloid beta 1-42, toxin used in the AD models [reference compound] |  |  |  |  | increases phosphorylation of tau | synaptic levels of p-Tau are increased |
| SCSLPQTSGLQKPES (listed as Mus musculus) [leptin (116-130)] | prevents Aβ1-42-dependent phosphorylation of tau and it trafficking to synapses | prevents Aβ1-42-dependent phosphorylation of tau | 64±4.9% | 122±9 % of control |  |  |
